Reference: patent US10323022B2, “Pyrrolidinyl urea, pyrrolidinyl thiourea and pyrrolidinyl guanidine compounds as TrkA kinase inhibitors” (Array BioPharma Inc., priority 2011, dated 2019)
Counter-ions that a name gives are not always drawn.

Target: TrkA (Homo sapiens (Human), UniProt P04629)
Test: TrkA Omnia Assay
Type: biochemical
Conditions: averaged IC50; 20 nM enzyme, 500 μM ATP, 10 μM peptide substrate
In short: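 Continuous fluorescent kinase read-out (ex 360 nm, em 485 nm) over 70 min, with initial rates fitted to 4- or 5-parameter logistic curves for IC50. Final conditions: 500 μM ATP, 10 μM Omnia Tyr Peptide #4, 20 nM TrkA, MOPS pH 7.5 buffer with MgCl2 and Triton X-100; enzyme and compound preincubated 10 min at ambient temperature.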

TrkA, sequence (P04629 33-796): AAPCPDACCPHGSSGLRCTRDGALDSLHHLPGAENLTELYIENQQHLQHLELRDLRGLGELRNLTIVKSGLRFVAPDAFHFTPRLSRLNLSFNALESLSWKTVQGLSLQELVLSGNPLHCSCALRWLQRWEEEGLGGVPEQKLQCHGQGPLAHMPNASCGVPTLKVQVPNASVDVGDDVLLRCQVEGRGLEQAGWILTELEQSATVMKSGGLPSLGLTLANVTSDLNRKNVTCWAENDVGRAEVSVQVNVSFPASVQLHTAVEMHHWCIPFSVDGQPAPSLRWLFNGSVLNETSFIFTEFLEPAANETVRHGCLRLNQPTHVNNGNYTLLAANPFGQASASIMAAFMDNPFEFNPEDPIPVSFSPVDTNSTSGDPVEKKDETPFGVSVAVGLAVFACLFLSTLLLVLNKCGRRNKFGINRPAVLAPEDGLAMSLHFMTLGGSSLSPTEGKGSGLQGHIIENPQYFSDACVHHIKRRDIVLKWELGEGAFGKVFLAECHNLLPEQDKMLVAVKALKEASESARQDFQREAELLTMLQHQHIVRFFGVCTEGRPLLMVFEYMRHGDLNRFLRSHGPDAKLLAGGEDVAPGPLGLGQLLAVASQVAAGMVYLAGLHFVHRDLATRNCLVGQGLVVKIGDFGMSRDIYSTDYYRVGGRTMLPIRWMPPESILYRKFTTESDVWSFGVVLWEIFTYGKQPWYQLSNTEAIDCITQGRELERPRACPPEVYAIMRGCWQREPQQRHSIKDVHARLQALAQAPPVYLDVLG

SMILES | IC50 [nM]
COCCN1C[C@@H](NC(=O)Nc2c(Cl)c([C@H]3CCCN3)nn2-c2ccccc2)[C@H](c2ccc(F)c(F)c2)C1 [Example 585, 1-((3S,4R)-4-(3,4-difluorophenyl)-1-(2-methoxyethyl)pyrrolidin-3-yl)-3-(4-chloro-1-phenyl-3-((R)-pyrrolidin-2-yl)-1H-pyrazol-5-yl)urea dihydrochloride] | < 100
CCOc1nn(-c2ccccc2)c(NC(=O)N[C@@H]2CN(c3ccccc3Cl)C[C@H]2c2ccccc2)c1C [Example 238, 1-(3-ethoxy-4-methyl-1-phenyl-1H-pyrazol-5-yl)-3-((3S,4R)-1-(2-chlorophenyl)-4-phenylpyrrolidin-3-yl)urea] | 100 to 1000
COCCN1C[C@@H](NC(=O)Nc2c(Cl)c(-c3ccncc3)nn2-c2ccccc2)[C@H](c2ccc(F)c(F)c2)C1 [Example 481, 1-(4-chloro-1-phenyl-3-(pyridin-4-yl)-1H-pyrazol-5-yl)-3-((3 S,4R)-4-(3,4-difluorophenyl)-1-(2-methoxyethyl)pyrrolidin-3-yl)urea] | < 100
COCCN1C[C@@H](NC(=O)Nc2cc(C(C)C)nn2-c2ccccc2)[C@H](c2cccc(F)c2)C1 (relative stereo) [Example 40, trans-1-(-4-(3-fluorophenyl)-1-(2-methoxyethyl)pyrrolidin-3-yl)-3-(3-isopropyl-1-phenyl-1H-pyrazol-5-yl)urea] | < 100
CCOC(=O)c1nn(-c2ccccc2)c(NC(=O)N[C@@H]2CN(CCOC)C[C@H]2c2ccc(F)c(F)c2)c1Br [Example 381, ethyl 4-bromo-5-(3-((3S,4R)-4-(3,4-difluorophenyl)-1-(2-methoxyethyl)pyrrolidin-3-yl)ureido)-1-phenyl-1H-pyrazole-3-carboxylate] | < 100
CCOc1nn(-c2ccccc2)c(NC(=O)N[C@H]2CN(c3ccnn3C)C[C@@H]2c2cc(F)cc(F)c2)c1C [Example 231, 1-((3R,4S)-4-(3,5-difluorophenyl)-1-(1-methyl-1H-pyrazol-5-yl)pyrrolidin-3-yl)-3-(3-ethoxy-4-methyl-1-phenyl-1H-pyrazol-5-yl)urea] | < 100
COCCN1C[C@@H](NC(=O)Nc2cc(-c3ccccc3)nn2CCO)[C@H](c2ccc(F)c(F)c2)C1 [Example 122, 1-((3S,4R)-4-(3,4-difluorophenyl)-1-(2-methoxyethyl)pyrrolidin-3-yl)-3-(1-(2-hydroxy-ethyl)-3-phenyl-1H-pyrazol-5-yl)urea] | 100 to 1000
COCCN1C[C@@H](NC(=O)Nc2c(C)c(-c3ccn(C)n3)nn2-c2ccccc2)[C@H](c2cc(F)cc(F)c2)C1 [Example 493, 1-((3S,4R)-4-(3,5-difluorophenyvl)-1-(2-methoxyethyl)pyrrolidin-3-yl)-3-(1′,4-dimethyl-1-phenyl-1H,1′H-[3,3′-bipyrazol]-5-yl)urea] | < 100
COCCN1C[C@@H](NC(=O)Nc2c(C(N)=O)c(C(F)(F)F)nn2-c2ccccc2)[C@H](c2ccc(F)c(F)c2)C1 [Example 622, 5-(3-((3S,4R)-4-(3,4-difluorophenyl)-1-(2-methoxyethyl)pyrrolidin-3-yl)ureido)-1-phenyl-3-(trifluoromethyl)-1H-pyrazole-4-carboxamide] | < 100
O=C(Nc1c2c(nn1-c1ccccc1)CCC2)N[C@@H]1CN(C(CF)CF)C[C@H]1c1ccccc1 (relative stereo) [Example 206, 1-((trans)-1-(1,3-difluoropropan-2-yl)-4-phenylpyrrolidin-3-yl)-3-(2-phenyl-2,4,5,6-tetrahydrocyclopenta[c]pyrazol-3-yl)urea] | 100 to 1000
COCCN1C[C@@H](NC(=O)Nc2c(C)c(-c3ccncc3)nn2-c2ccccc2)[C@H](c2ccc(F)c(F)c2)C1 [Example 487, 1-((3S,4R)-4-(3,4-difluorophenyl)-1-(2-methoxyethyl)pyrrolidin-3-yl)-3-(4-methyl-1-phenyl-3-(pyridin-4-yl)-1H-pyrazol-5-yl)urea] | < 100
CCOC(=O)COc1nn(-c2ccccc2)c(NC(=O)N[C@@H]2CN(CCOC)C[C@H]2c2ccc(F)c(F)c2)c1C [Example 361, ethyl 2-((5-(3-((3S,4R)-4-(3,4-difluorophenyl)-1-(2-methoxyethyl)pyrrolidin-3-yl)ureido)-4-methyl-1-phenyl-1H-pyrazol-3-yl)oxy)acetate] | < 100
COCCN1C[C@@H](NC(=O)Nc2c(C)c(OCCN3CCN(C(C)=O)CC3)nn2-c2ccccc2)[C@H](c2ccc(F)c(F)c2)C1 [Example 546, 1-(3-(2-(4-acetylpiperazin-1-yl)ethoxy)-4-methyl-1-phenyl-1H-pyrazol-5-yl)-3-((3S,4R)-4-(3,4-difluorophenyl)-1-(2-methoxyethyl)pyrrolidin-3-yl)urea] | < 100
COCCN1C[C@@H](NC(=O)Nc2c(C)c(-c3cnn(C)c3)nn2-c2ccccc2)[C@H](c2cnn(C)c2)C1 (relative stereo) [Example 333, 1-(1′,4-dimethyl-1-phenyl-1H,1'H-[3,4′-bipyrazol]-5-yl)-3-(trans-1-(2-methoxyethyl)-4-(1-methyl-1H-pyrazol-4-yl)pyrrolidin-3-yl)urea] | 100 to 1000
COCCN1C[C@@H](NC(=O)Nc2cc(-c3cnn(C)c3)nn2C)[C@H](c2ccc(F)c(F)c2)C1 [Example 58, 1-((3S,4R)-4-(3,4-difluorophenyl)-1-(2-methoxyethyl)pyrrolidin-3-yl)-3-(1,1′-dimethyl-1H,1′H-3,4′-bipyrazol-5-yl)urea] | < 100

Now from value to molecule:

IC50 [nM] | SMILES
< 100 | COCCN1C[C@@H](NC(=O)Nc2cn(-c3ccccc3)nc2C)[C@H](c2ccc(F)c(F)c2)C1 [Example 648, 1-((3S,4R)-4-(3,4-difluorophenyl)-1-(2-methoxyethyl)pyrrolidin-3-yl)-3-(3-methyl-1-phenyl-1H-pyrazol-4-yl)urea]
< 100 | COCCN1C[C@@H](NC(=O)Nc2c(C)c(-c3cnn(C)c3)nn2-c2ccccc2)[C@H](c2ccc(F)cc2F)C1 [Example 324, 1-((3S,4R)-4-(2,4-difluorophenyl)-1-(2-methoxyethyl)pyrrolidin-3-yl)-3-(1′,4-dimethyl-1-phenyl-1H,1′H-[3,4′-bipyrazol]-5-yl)urea]
< 100 | COCCN1C[C@@H](NC(=O)Nc2c(C)c(OCC(C)(C)O)nn2-c2ccccc2)[C@H](c2ccc(F)c(F)c2)C1 [Example 145, 1-((3S,4R)-4-(3,4-difluorophenyl)-1-(2-methoxyethyl)pyrrolidin-3-yl)-3-(3-(2-hydroxy-2-methylpropoxy)-4-methyl-1-phenyl-1H-pyrazol-5-yl)urea]
< 100 | COCCN1C[C@@H](NC(=O)Nc2c3c(nn2-c2ccccc2)CCC3)[C@H](c2cccc(F)c2)C1 (relative stereo) [Example 39, trans-1-(4-(3-fluorophenyl)-1-(2-methoxyethyl)pyrrolidin-3-yl)-3-(2-phenyl-2,4,5,6-tetrahydrocyclopenta[c]pyrazol-3-yl)urea]
< 100 | COCCN1C[C@@H](NC(=O)Nc2cc(-c3ccc(F)cc3)nn2C)[C@H](c2ccccc2)C1 [Example 107, 1-(3-(4-fluorophenyl)-1-methyl-1H-pyrazol-5-yl)-3-((3S,4R)-1-(2-methoxy-ethyl)-4-phenylpyrrolidin-3-yl)urea]
< 100 | COCCN1C[C@@H](NC(=O)Nc2c(Cl)c(-c3cnn(C)c3)nn2-c2ccccc2)[C@H](c2ccc(F)cc2)C1 [Example 424, 1-(4-chloro-1′-methyl-1-phenyl-1H,1′H-[3,4′-bipyrazol]-5-yl)-3-((3S,4R)-4-(4-fluorophenyl)-1-(2-methoxyethyl)pyrrolidin-3-yl)urea]
100 to 1000 | COCCN1C[C@@H](NC(=O)Nc2c(C#N)c(C)nn2-c2ccccc2)[C@H](c2ccccc2)C1 (relative stereo) [Example 32, 1-(4-cyano-3-methyl-1-phenyl-1H-pyrazol-5-yl)-3-(trans-1-(2-methoxy-ethyl)-4-phenylpyrrolidin-3-yl)urea]
< 100 | CCn1nc(-c2ccccc2)c(NC(=O)N[C@@H]2CN(CCOC)C[C@H]2c2ccc(F)c(F)c2)c1C [Example 644, 1-((3S,4R)-4-(3,4-difluorophenyl)-1-(2-methoxyethyl)pyrrolidin-3-yl)-3-(1-ethyl-5-methyl-3-phenyl-1H-pyrazol-4-yl)urea]
< 100 | COCCN1C[C@@H](NC(=O)Nc2c(C)c(OCCN3CCOCC3)nn2-c2ccccc2)[C@H](c2ccc(F)c(F)c2)C1 [Example 386, 1-((3S,4R)-4-(3,4-difluorophenyl)-1-(2-methoxyethyl)pyrrolidin-3-yl)-3-(4-methyl-3-(2-morpholinoethoxy)-1-phenyl-1H-pyrazol-5-yl)urea]
< 100 | COCCN1C[C@@H](NC(=O)Nc2cc(-c3ccc(C(=O)O)cc3)nn2C)[C@H](c2ccc(F)c(F)c2)C1 [Example 161, 4-(5-(3-((3S,4R)-4-(3,4-difluorophenyl)-1-(2-methoxyethyl)pyrrolidin-3-yl)ureido)-1-methyl-1H-pyrazol-3-yl)benzoic acid]
< 100 | COCCN1C[C@@H](NC(=O)Nc2c(C(N)=O)c(C(F)F)nn2-c2ccccc2)[C@H](c2ccc(F)c(F)c2)C1 [Example 628, 3-(difluoromethyl)-5-(3-((3S,4R)-4-(3,4-difluorophenyl)-1-(2-methoxyethyl)pyrrolidin-3-yl)ureido)-1-phenyl-1H-pyrazole-4-carboxamide]
< 100 | COCCN1C[C@@H](NC(=O)Nc2cc(C(C)C)nn2-c2ccccc2)[C@H](c2ccccc2)C1 (relative stereo) [Example 12, 1-(3-isopropyl-1-phenyl-1H-pyrazol-5-yl)-3-(trans-1-(2-methoxyethyl)-4-phenylpyrrolidin-3-yl)urea]
100 to 1000 | COCCN1C[C@@H](NC(=O)Nc2cc(C3CC3)nn2C)[C@H](c2cc(F)cc(F)c2)C1 [Example 55, 1-(3-cyclopropyl-1-methyl-1H-pyrazol-5-yl)-3-((3S,4R)-4-(3,5-difluorophenyl)-1-(2-methoxyethyl)pyrrolidin-3-yl)urea]
